In PubChem BioAssay AID248 (DTP/NCI, 2004):
Values joined by “and” are separate entries in the source; they are usually repeats but may differ in a detail not shown here. Identical values can stand only once. Toxic doses and inconclusive results are not listed. No stated cut-off is given here; in the data, active means T/C of 150% or more; inactive means T/C below 125%.

System: L1210 leukemia ip in BDF1 mice, survival T/C
Assay: NCI In Vivo Anticancer Drug Screen. Data for tumor model L1210 Leukemia (intraperitoneal) in B6D2F1 (BDF1) mice
Conditions: endpoint: mean survival time, higher = longer survival
Outline: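 Ratio derived from survival: compound-dosed mice over vehicle-dosed mice, all bearing a transplantable tumor.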

[1] = dose: 100.0 mg/kg/injection, schedule: Q01DX009 (ip), vehicle: Klucel (hydroxypropylcellulose) (HPC)
[2] = dose: 100.0 mg/kg/injection, schedule: Q04DX003 (ip), vehicle: Klucel (hydroxypropylcellulose) (HPC)
[3] = dose: 200.0 mg/kg/injection, schedule: Q01DX009 (ip), vehicle: Klucel (hydroxypropylcellulose) (HPC)
[4] = dose: 200.0 mg/kg/injection, schedule: Q04DX003 (ip), vehicle: Klucel (hydroxypropylcellulose) (HPC)
[5] = dose: 400.0 mg/kg/injection, schedule: Q01DX009 (ip), vehicle: Klucel (hydroxypropylcellulose) (HPC)
[6] = dose: 400.0 mg/kg/injection, schedule: Q04DX003 (ip), vehicle: Klucel (hydroxypropylcellulose) (HPC)
[7] = dose: 100.0 mg/kg/injection, schedule: Q04DX003 (ip), vehicle: saline with Tween-80
[8] = dose: 200.0 mg/kg/injection, schedule: Q04DX003 (ip), vehicle: saline with Tween-80
[9] = dose: 100.0 mg/kg/injection, schedule: Q01DX001 (ip), vehicle: saline
[10] = dose: 200.0 mg/kg/injection, schedule: Q01DX001 (ip), vehicle: saline
[11] = dose: 400.0 mg/kg/injection, schedule: Q01DX001 (ip), vehicle: saline
[12] = dose: 100.0 mg/kg/injection, schedule: Q01DX001 (ip), vehicle: carboxymethylcellulose (CMC)

Measured: T/C

O=C(NCCCNC(=O)Nc1cccc(C2=NCCCN2)c1)Nc1cccc(C2=NCCCN2)c1
inactive: dose: 0.5 mg/kg/injection, schedule: Q01DX Z (ip), vehicle: carboxymethylcellulose (CMC) 104 % of control | dose: 1.0 mg/kg/injection, schedule: Q01DX Z (ip), vehicle: carboxymethylcellulose (CMC) 106 % of control | dose: 2.0 mg/kg/injection, schedule: Q01DX Z (ip), vehicle: carboxymethylcellulose (CMC) 96 % of control

CC1=CC(OC2CCCCO2)C2CC1C2(C)C (stereo not given)
inactive: [1] 97 % of control | [2] 98 % of control | [3] 103 % of control | [4] 95 % of control | [5] 92 % of control | [6] 93 % of control

CCOc1ccc(Br)cc1/C=N/NS(=O)(=O)c1ccc(C)cc1
inactive: dose: 100.0 mg/kg/injection, schedule: Q01DX009 (ip), vehicle: saline with Tween-80 94 % of control | [7] 97 % of control | dose: 200.0 mg/kg/injection, schedule: Q01DX009 (ip), vehicle: saline with Tween-80 97 % of control | [8] 103 % of control | dose: 400.0 mg/kg/injection, schedule: Q01DX009 (ip), vehicle: saline with Tween-80 101 % of control | dose: 400.0 mg/kg/injection, schedule: Q04DX003 (ip), vehicle: saline with Tween-80 103 % of control

C(=C/c1ccnc(/C=C/c2ccccc2)c1)/c1ccccc1
inactive: dose: 25.0 mg/kg/injection, schedule: Q01DX009 (ip), vehicle: acetone 97 % of control and 99 % of control | dose: 50.0 mg/kg/injection, schedule: Q01DX009 (ip), vehicle: acetone 87 % of control | [9] 91 % of control | dose: 100.0 mg/kg/injection, schedule: Q01DX009 (ip), vehicle: acetone 89 % of control and 92 % of control | dose: 100.0 mg/kg/injection, schedule: Q04DX003 (ip), vehicle: acetone 94 % of control | [10] 94 % of control | dose: 200.0 mg/kg/injection, schedule: Q04DX003 (ip), vehicle: acetone 86 % of control | [11] 94 % of control

CCC1CC2c3cc(OC)c(OC)cc3CCN2CC1(O)c1ccccc1 (stereo not given)
inactive: dose: 25.0 mg/kg/injection, schedule: Q01DX001 (ip), vehicle: carboxymethylcellulose (CMC) 92 % of control | dose: 25.0 mg/kg/injection, schedule: Q04DX003 (ip), vehicle: carboxymethylcellulose (CMC) 97 % of control | dose: 50.0 mg/kg/injection, schedule: Q01DX001 (ip), vehicle: carboxymethylcellulose (CMC) 95 % of control | dose: 50.0 mg/kg/injection, schedule: Q04DX003 (ip), vehicle: carboxymethylcellulose (CMC) 97 % of control | [12] 103 % of control and 109 % of control | dose: 100.0 mg/kg/injection, schedule: Q04DX003 (ip), vehicle: carboxymethylcellulose (CMC) 100 % of control

CN(C)CCN=Cc1[nH]c(=S)[nH]c(=O)c1CCc1ccccc1
inactive: dose: 100.0 mg/kg/injection, schedule: Q01DX001 (ip), vehicle: saline with Tween-80 93 % of control | dose: 200.0 mg/kg/injection, schedule: Q01DX001 (ip), vehicle: saline with Tween-80 97 % of control | dose: 400.0 mg/kg/injection, schedule: Q01DX001 (ip), vehicle: saline with Tween-80 95 % of control

CCOC(=O)P(=O)(OCC)OCC
inactive: [12] 101 % of control | dose: 200.0 mg/kg/injection, schedule: Q01DX001 (ip), vehicle: carboxymethylcellulose (CMC) 95 % of control | dose: 400.0 mg/kg/injection, schedule: Q01DX001 (ip), vehicle: carboxymethylcellulose (CMC) 104 % of control

Clc1ccc(CSc2ncc(Br)c(Cl)n2)cc1
inactive: dose: 100.0 mg/kg/injection, schedule: Q01DX Z (ip), vehicle: methylcellulose (MC) 90 % of control | dose: 200.0 mg/kg/injection, schedule: Q01DX Z (ip), vehicle: methylcellulose (MC) 99 % of control

O=[N+]([O-])/C=C/c1ccc([N+](=O)[O-])o1
inactive: dose: 3.0 mg/kg/injection, schedule: Q01DX001 (ip), vehicle: Klucel (hydroxypropylcellulose) (HPC) 106 % of control | dose: 6.0 mg/kg/injection, schedule: Q01DX001 (ip), vehicle: Klucel (hydroxypropylcellulose) (HPC) 98 % of control | dose: 12.0 mg/kg/injection, schedule: Q01DX001 (ip), vehicle: Klucel (hydroxypropylcellulose) (HPC) 92 % of control | dose: 12.5 mg/kg/injection, schedule: Q01DX001 (ip), vehicle: Klucel (hydroxypropylcellulose) (HPC) 107 % of control

CN(Cc1cnc2nc(N)nc(N)c2n1)c1cc(Cl)c(C(=O)NC(CCC(=O)O)C(=O)O)cc1Cl (stereo not given)
inactive: dose: 6.25 mg/kg/injection, schedule: Q01DX009 (ip), vehicle: sodium bicarbonate 106 % of control | dose: 12.5 mg/kg/injection, schedule: Q01DX009 (ip), vehicle: sodium bicarbonate 115 % of control

CC(C)(O)C(=O)N/N=C/c1ccc(Cl)cc1Cl
inactive: dose: 25.0 mg/kg/injection, schedule: Q01DX009 (ip), vehicle: saline with Tween-80 102 % of control

CCC[CH2][Sn]1([CH2]CCC)[O]OC(c2ccccc2)[O]1 (stereo not given)
inactive: dose: 0.5 mg/kg/injection, schedule: Q01DX009 (ip), vehicle: saline sonified 102 % of control | dose: 1.0 mg/kg/injection, schedule: Q01DX009 (ip), vehicle: saline sonified 98 % of control | dose: 2.0 mg/kg/injection, schedule: Q01DX009 (ip), vehicle: saline sonified 104 % of control

O=C(OCCOCCOCCOC(=O)c1ccccc1)c1ccccc1
inactive: [1] 96 % of control | [2] 112 % of control | [3] 96 % of control | [4] 102 % of control | [5] 102 % of control | [6] 99 % of control

COc1cccc2c1C1c3ccccc3C(O)CC1CC2O (stereo not given)
inactive: dose: 37.5 mg/kg/injection, schedule: Q01DX001 (ip), vehicle: Klucel (hydroxypropylcellulose) (HPC) 89 % of control | dose: 75.0 mg/kg/injection, schedule: Q01DX001 (ip), vehicle: Klucel (hydroxypropylcellulose) (HPC) 104 % of control | dose: 150.0 mg/kg/injection, schedule: Q01DX001 (ip), vehicle: Klucel (hydroxypropylcellulose) (HPC) 91 % of control

COC(=O)CCSC(c1ccccc1)(c1ccccc1)c1ccccc1
inactive: [1] 104 % of control | [2] 96 % of control | [3] 94 % of control | [4] 93 % of control | [5] 100 % of control | [6] 93 % of control

O=[N+]([O-])c1ccc(NC2CCCCC2)c2c1no[n+]2[O-]
inactive: dose: 50.0 mg/kg/injection, schedule: Q04DX003 (ip), vehicle: saline with Tween-80 100 % of control | [7] 100 % of control | [8] 118 % of control

CCOc1ccc(N=Nc2ccc(N)cc2N)cc1
inactive: dose: 100.0 mg/kg/injection, schedule: Q04DX002 (ip), vehicle: Klucel (hydroxypropylcellulose) (HPC) 96 % of control | dose: 200.0 mg/kg/injection, schedule: Q04DX002 (ip), vehicle: Klucel (hydroxypropylcellulose) (HPC) 101 % of control | dose: 400.0 mg/kg/injection, schedule: Q04DX002 (ip), vehicle: Klucel (hydroxypropylcellulose) (HPC) 96 % of control

O=[N+]([O-])c1ccc2[nH]c(O)c(N=Nc3ccccc3[N+](=O)[O-])c2c1
inactive: [9] 98 % of control | [10] 96 % of control | [11] 105 % of control

CCOC(=O)C(=[N+]=[N-])C(F)(F)F
inactive: dose: 50.0 mg/kg/injection, schedule: Q01DX009 (ip), vehicle: saline 102 % of control | dose: 100.0 mg/kg/injection, schedule: Q01DX009 (ip), vehicle: saline 102 % of control | dose: 200.0 mg/kg/injection, schedule: Q01DX009 (ip), vehicle: saline 95 % of control

CCOC(=O)/C=C(\C)c1ccc([N+](=O)[O-])cc1
inactive: dose: 100.0 mg/kg/injection, schedule: Q01DX001 (ip), vehicle: Klucel (hydroxypropylcellulose) (HPC) 107 % of control | dose: 200.0 mg/kg/injection, schedule: Q01DX001 (ip), vehicle: Klucel (hydroxypropylcellulose) (HPC) 100 % of control | dose: 400.0 mg/kg/injection, schedule: Q01DX001 (ip), vehicle: Klucel (hydroxypropylcellulose) (HPC) 97 % of control

CCCC(CCC)NC(=O)c1ccccc1
inactive: dose: 25.0 mg/kg/injection, schedule: Q04DX002 (ip), vehicle: saline with Tween-80 104 % of control | dose: 50.0 mg/kg/injection, schedule: Q04DX002 (ip), vehicle: saline with Tween-80 95 % of control | dose: 100.0 mg/kg/injection, schedule: Q04DX002 (ip), vehicle: saline with Tween-80 95 % of control
